Measured values as given in ChEMBL document CHEMBL3588800, “Novel Bioactive Hybrid Compound Dual Targeting Estrogen Receptor and Histone Deacetylase for the Treatment of Breast Cancer” (J Med Chem, 2015).

Experiments:
Estrogen receptor beta [1] = biological target: T1, Estrogen receptor beta (Homo sapiens, UniProt Q92731); experiment: Antagonist activity at ER-beta (unknown origin) transfected in HEK293T cells assessed as inhibition of transcriptional activity after 24 hrs by luciferase reporter gene assay relative to 17-beta estradiol; format: cell-based; settings: HEK-293T
DU-145 = experiment: cells; format: functional, cell-based; settings: Homo sapiens, DU-145, 72 h
Vero = experiment: cells; format: ADME, cell-based; settings: Chlorocebus sabaeus, 72 h
[2] = biological target: T2, Estrogen receptor (Homo sapiens) (UniProt P03372); experiment: Antagonist activity at ER-alpha (unknown origin) transfected in HEK293T cells assessed as inhibition of transcriptional activity after 24 hrs by luciferase reporter gene assay relative to 17-beta estradiol; format: cell-based; settings: HEK-293T
T2 sequence (whole entry): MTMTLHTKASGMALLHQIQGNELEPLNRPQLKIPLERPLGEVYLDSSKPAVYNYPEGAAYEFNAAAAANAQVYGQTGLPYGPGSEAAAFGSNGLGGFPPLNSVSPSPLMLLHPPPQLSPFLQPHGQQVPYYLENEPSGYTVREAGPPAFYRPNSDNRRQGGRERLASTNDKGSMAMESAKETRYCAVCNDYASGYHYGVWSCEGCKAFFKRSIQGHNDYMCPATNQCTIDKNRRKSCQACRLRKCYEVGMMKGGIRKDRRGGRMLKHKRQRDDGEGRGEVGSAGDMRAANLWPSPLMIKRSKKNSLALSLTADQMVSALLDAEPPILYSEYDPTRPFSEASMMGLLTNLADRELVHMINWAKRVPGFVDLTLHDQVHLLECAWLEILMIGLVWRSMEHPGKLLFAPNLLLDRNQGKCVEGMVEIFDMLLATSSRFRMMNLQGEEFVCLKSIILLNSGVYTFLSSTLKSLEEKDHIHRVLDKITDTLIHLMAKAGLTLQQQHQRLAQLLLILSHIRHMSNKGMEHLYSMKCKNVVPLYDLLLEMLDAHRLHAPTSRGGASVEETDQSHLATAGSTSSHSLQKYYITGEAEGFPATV

MCF7 = experiment: cells; format: functional, cell-based; settings: Homo sapiens, MCF7, 72 h
[3] = biological target: T2, Estrogen receptor (Homo sapiens); experiment: Agonist activity at ER-alpha (unknown origin) transfected in HEK293T cells assessed as stimulation of transcriptional activity after 24 hrs by luciferase reporter gene assay relative to 17-beta estradiol; format: cell-based; settings: HEK-293T
Estrogen receptor beta [4] = biological target: T1, Estrogen receptor beta; experiment: Agonist activity at ER-beta (unknown origin) transfected in HEK293T cells assessed as stimulation of transcriptional activity after 24 hrs by luciferase reporter gene assay relative to 17-beta estradiol; format: cell-based; settings: HEK-293T
Estrogen receptor beta [5] = biological target: T1, Estrogen receptor beta; experiment: Agonist activity at ER-beta (unknown origin) transfected in HEK293T cells assessed as stimulation of transcriptional activity after 24 hrs by luciferase reporter gene assay; format: cell-based, HEK-293T
Estrogen receptor = biological target: T3, Estrogen receptor (Homo sapiens, UniProt P03372); experiment: Binding affinity to human ER-alpha ligand binding domain after 2 hrs by competitive fluorometric binding assay
T3 sequence (P03372 whole entry): T2 sequence (whole entry)

Estrogen receptor beta [6] = biological target: T1, Estrogen receptor beta; experiment: Binding affinity to human ER-beta ligand binding domain after 2 hrs by competitive fluorometric binding assay

T1 sequence (Q92731 whole entry): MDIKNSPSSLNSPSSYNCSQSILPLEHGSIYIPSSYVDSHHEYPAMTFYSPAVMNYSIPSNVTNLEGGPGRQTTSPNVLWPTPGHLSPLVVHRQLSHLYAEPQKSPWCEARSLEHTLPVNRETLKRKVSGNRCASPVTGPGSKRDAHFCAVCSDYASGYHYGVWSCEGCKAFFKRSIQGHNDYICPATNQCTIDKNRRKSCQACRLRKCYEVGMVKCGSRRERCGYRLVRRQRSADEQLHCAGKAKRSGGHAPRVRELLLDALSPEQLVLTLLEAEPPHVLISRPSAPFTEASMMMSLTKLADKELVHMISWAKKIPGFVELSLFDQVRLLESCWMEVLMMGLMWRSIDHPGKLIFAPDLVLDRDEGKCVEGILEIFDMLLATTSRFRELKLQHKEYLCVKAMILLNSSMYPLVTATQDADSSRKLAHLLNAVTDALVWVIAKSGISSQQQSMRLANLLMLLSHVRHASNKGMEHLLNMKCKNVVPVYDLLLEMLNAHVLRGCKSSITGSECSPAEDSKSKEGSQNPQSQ

Row | Structure (SMILES) | Efficacy (Estrogen receptor beta [1]) | IC50 (DU-145) | Efficacy [2] | IC50 (MCF7) | Efficacy [3] | Efficacy (Estrogen receptor beta [4]) | EC50 (Estrogen receptor beta [5]) | Ki (Estrogen receptor) | Ki (Estrogen receptor beta [6]) | IC50 (Vero)
1 | O=C(O)CCCCCCC(=O)Nc1cccc(OS(=O)(=O)C2CC3OC2C(c2ccc(O)cc2)=C3c2ccc(O)cc2)c1 (stereo not given) | 102% | > 100 µM | 122% | > 100 µM | 51% | 47% | 2.1 µM | – | – | > 100 µM
2 | O=C(CCCCCCC(=O)Nc1ccc(C2=C(c3ccc(O)cc3)C3CC(S(=O)(=O)Oc4ccccc4)C2O3)cc1)NO (racemic) | 92% | 37.7 µM | 77% | 30.1 µM | 20% | 38% | 0.002 µM | > 5 µM | – | > 100 µM
3 | Cc1ccccc1OS(=O)(=O)C1CC2OC1C(c1ccc(NC(=O)CCCCCCC(=O)NO)cc1)=C2c1ccc(O)cc1 (racemic) | 94% | 30.7 µM | 126% | 24.1 µM | -20% | 27% | 0.203 µM | > 5 µM | 2.12 µM | > 100 µM

Continued by falling IC50 (DU-145), values first:

Row | Efficacy (Estrogen receptor beta [1]) | IC50 (DU-145) | Efficacy [2] | IC50 (MCF7) | Efficacy [3] | Efficacy (Estrogen receptor beta [4]) | EC50 (Estrogen receptor beta [5]) | Ki (Estrogen receptor) | Ki (Estrogen receptor beta [6]) | Structure (SMILES) | IC50 (Vero)
4 | 86% | 47.3 µM | 135% | 23.4 µM | – | 49% | 0.002 µM | > 5 µM | 3.4 µM | O=C(CCCCCCC(=O)Nc1ccc(C2=C(c3ccc(O)cc3)C3CC(S(=O)(=O)Oc4ccc(F)cc4)C2O3)cc1)NO (racemic) | > 100 µM
5 | 74% | 44.7 µM | 164% | 25.8 µM | 9% | 53% | 0.023 µM | > 5 µM | – | COc1ccccc1OS(=O)(=O)C1CC2OC1C(c1ccc(NC(=O)CCCCCCC(=O)NO)cc1)=C2c1ccc(O)cc1 (racemic) | > 100 µM
6 | 95% | 42.9 µM | 116% | 40.4 µM | -28% | 52% | 0.038 µM | > 5 µM | > 5 µM | Cc1ccc(OS(=O)(=O)C2CC3OC2C(c2ccc(NC(=O)CCCCCCC(=O)NO)cc2)=C3c2ccc(O)cc2)cc1 (racemic) | > 100 µM
